# Data: PubChem BioAssay AID1963445 (Molecular Pharmacology Branch, DTP, NCI, 2024)
# “And” between values parts separate entries of the source, which are not always exact repeats. Equal values may be shown once.
# Tested on: MCF7 complex spheroid growth, % test/control
# Test: Anticancer human tumor MCF7 cell line growth inhibition [Asc];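 further: spheroids exposed to compounds for 7 days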;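 on viability, T/C: 100% = DMSO vehicle control wells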
# Conditions: for viability, T/C: stronger effect = lower value
# Method: Multicellular complex tumor spheroid response to apoptosis pathway targeting inhibitors Alrizomadlin, Pelcitoclax, and Dasminapant in combination with a variety of drugs and investigational agents in selected tumor cell lines
# The MDM2 inhibitor alrizomadlin, the Bcl-2/Bcl-xL inhibitor pelcitoclax, and the IAPs inhibitor dasminapant were evaluated both individually and in combination with standard of care and investigational anticancer small molecules within a complex spheroid model of solid tumors. . Complex spheroids include a stromal component modeled by human endothelial cells (HUVEC) and fibroblasts modeled by human mesenchymal stem cells (MSCs). The concentration ranges selected for each drug and investigational agent were based upon clinically achievable concentrations if the clinical Cmax of the agent was known.
# Compounds. The drugs and investigational agents: alrizomadlin (APG-115; NSC831270), pelcitoclax (APG-1252; NSC835773), dasminapant (APG-1387;NSC834197), TAK-243 (NSC785004), copanlisib (NSC809693), olaparib (NSC753686), talazoparib (NSC767125), cobimetinib (NSC 768068), eltanexor (KPT-8602, NSC 794443), abemaciclib (NSC 768073), sotorasib (NSC818433), adagrasib (NSC 831453), MRTX-1133 (NSC 836407), Iadademestat (ORY1001, NSC 806812), and RMC-4630 (NSC839698), were obtained from the NCI Developmental Therapeutics Program Chemical Repository. The FDA-approved anticancer drug set is available from the Developmental Therapeutics Program at https://dtp.cancer.gov/organization/dscb/obtaining/available plates.htm. […] The stock solutions were prepared in dimethyl sulfoxide (DMSO, Sigma-Aldrich, St. Louis, MO, cat. D2650) at 800-fold the tested concentration and stored at -70 degrees C prior to their use. All drugs and investigational agents were tested over a range starting from a high concentration at or near the clinical Cmax and decreasing in half-log increments. If the clinical Cmax for an agent had not been determined, the highest concentration tested was 10 microM.
# The patient-derived cancer (PDC) cell lines include five colon adenocarcinomas: 186277-243-T-J2-PDC, 616215-338-R-J1-PDC, 439559-082-T-J2-PDC, 463943-066-T-J2-PDC, and 519858-162-T-J1-PDC; three pancreatic carcinomas: 323965-272-R-J2-PDC, 521955-158-R6-J3-PDC, and 521955-158-R2-J5-PDC; two uterine sarcomas: 327498-152-R-J2-PDC and 993429-296-R-J1-PDC; two rhabdomyosarcomas: 755483-174-R-J1-PDC and 772245-204-R-J1-PDC; two soft tissue sarcomas: 126254-015-R-J1-PDC and 494315-158-R-J1-PDC; two malignant fibrous histiocytomas: 317291-083-R-J1-PDC and 596521-263-R-J1-PDC; two breast carcinomas: 171881-019-R-J1-PDC and 885512-296-R-J2-PDC; and one ovarian carcinoma: 6556581-035-R-J-PDC were obtained from the NCI PDMR, (https://pdmr.cancer.gov). The established cell lines HSSY-2 synovial sarcoma (RRID:CVCL 8719), SYO-1 synovial sarcoma (RRID:CVCL_7146), MPNST malignant peripheral neural sheath tumor were obtained from the Sloan Kettering Institute. The following established cell lines were purchased from the American Type Culture Collection (ATCC, Manassas, VA), Sor the received from the NCI repository:, PANC-1 pancreatic carcinoma (CRL-1469, RRID:CVCL_0480), OVCAR-5 ovarian carcinoma (RRID:CVCL_1628), OVCAR-8 ovarian carcinoma (RRID:CVCL_1629), , MCF-7 breast carcinoma (CRL-12584, RRID:CVCL_0031), MDA-MB-231 breast carcinoma (CRL-12532, RRID:CVCL_0062), NCI-H1876 small cell lung carcinoma (CRL-5902, RRID:CVCL_1503), NCI-H510A small cell lung carcinoma (HTB-184, RRID:CVCL_1565), NCI-H1417 (CRL-5869, RRID:CVCL_1469), and NCI-H196 small cell lung carcinoma (CRL-5823, RRID:CVCL_1509). Dr. Peter Houghton (Greehey Children's Cancer Research Institute, University of Texas Health Science Center, San Antonio, TX) provided Rh-18 rhabdomyosarcoma (RRID:CVCL_1659). Pooled donor human umbilical vein endothelial cells (HUVEC, Lonza, cat. CC-2519) and human mesenchymal stem cells (hMSC, Lonza, cat. PT-2501) were purchased from Lonza (Walkersville, MD).
# Cell Culture. […]
compound,measurement,setting,value
NC(=O)C(=Cn1cnc(-c2cc(C(F)(F)F)cc(C(F)(F)F)c2)n1)c1cncnc1 + Cc1c(S(C)(=O)=O)c(-c2cc(F)cc(N3CCN(c4ccc(NS(=O)(=O)c5ccc(NC(CCN6CCC(C(=O)OCCCP(=O)(O)O)CC6)CSc6ccccc6)c(S(=O)(=O)C(F)(F)F)c5)cc4)CC3)c2)c(-c2ccc(Cl)cc2)n1C(C)C,IC50,"curve of first compound, second compound 0.0316 µM",76.6 nM
same,IC50,"curve of first compound, second compound 0.1 µM",51.6 nM
same,IC50,"curve of first compound, second compound 0.316 µM",35.1 nM
same,IC50,"curve of first compound, second compound 1 µM",39.8 nM
same,IC50,"curve of first compound, second compound 3.16 µM",27.3 nM
same,IC50,"curve of first compound, second compound 10 µM",62.6 nM
same,"viability, T/C","second compound 0.0316 µM, first compound 0.000949 µM",94.4%
same,"viability, T/C","second compound 0.0316 µM, first compound 0.003 µM",88%
same,"viability, T/C","second compound 0.0316 µM, first compound 0.00949 µM",89.3%
same,"viability, T/C","second compound 0.0316 µM, first compound 0.03 µM",89.7%
same,"viability, T/C","second compound 0.0316 µM, first compound 0.0949 µM",40.9%
same,"viability, T/C","second compound 0.0316 µM, first compound 0.3 µM",16.8%
same,"viability, T/C","second compound 0.1 µM, first compound 0.000949 µM",87.6%
same,"viability, T/C","second compound 0.1 µM, first compound 0.003 µM",82.8%
same,"viability, T/C","second compound 0.1 µM, first compound 0.00949 µM",81.8%
same,"viability, T/C","second compound 0.1 µM, first compound 0.03 µM",76.4%
same,"viability, T/C","second compound 0.1 µM, first compound 0.0949 µM",20.3%
same,"viability, T/C","second compound 0.1 µM, first compound 0.3 µM",15.7%
same,"viability, T/C","second compound 0.316 µM, first compound 0.000949 µM",90.5%
same,"viability, T/C","second compound 0.316 µM, first compound 0.003 µM",87.4%
same,"viability, T/C","second compound 0.316 µM, first compound 0.00949 µM",70.1%
same,"viability, T/C","second compound 0.316 µM, first compound 0.03 µM",60.9%
same,"viability, T/C","second compound 0.316 µM, first compound 0.0949 µM",19.7%
same,"viability, T/C","second compound 0.316 µM, first compound 0.3 µM",16.4%
same,"viability, T/C","second compound 1 µM, first compound 0.000949 µM",89%
same,"viability, T/C","second compound 1 µM, first compound 0.003 µM",75.8%
same,"viability, T/C","second compound 1 µM, first compound 0.00949 µM",73.8%
same,"viability, T/C","second compound 1 µM, first compound 0.03 µM",61%
same,"viability, T/C","second compound 1 µM, first compound 0.0949 µM",13.9%
same,"viability, T/C","second compound 1 µM, first compound 0.3 µM",18.8%
same,"viability, T/C","second compound 3.16 µM, first compound 0.000949 µM",70.4%
same,"viability, T/C","second compound 3.16 µM, first compound 0.003 µM",73.4%
same,"viability, T/C","second compound 3.16 µM, first compound 0.00949 µM",77%
same,"viability, T/C","second compound 3.16 µM, first compound 0.03 µM",47.9%
same,"viability, T/C","second compound 3.16 µM, first compound 0.0949 µM",22.5%
same,"viability, T/C","second compound 3.16 µM, first compound 0.3 µM",18.4%
same,"viability, T/C","second compound 10 µM, first compound 0.000949 µM",121%
same,"viability, T/C","second compound 10 µM, first compound 0.003 µM",131%
same,"viability, T/C","second compound 10 µM, first compound 0.00949 µM",102%
same,"viability, T/C","second compound 10 µM, first compound 0.03 µM",90.6%
same,"viability, T/C","second compound 10 µM, first compound 0.0949 µM",25.5%
same,"viability, T/C","second compound 10 µM, first compound 0.3 µM",16.8%
C=C(F)C(=O)N1CCN(c2nc(OCC3CCCN3C)nc3c2CCN(c2cccc4cccc(Cl)c24)C3)CC1CC#N (centres undefined),"viability, T/C",compound 0.0316 µM,82.4% and 98.6% and 109%
same,"viability, T/C",compound 0.1 µM,92.8% and 99.8% and 107%
same,"viability, T/C",compound 0.316 µM,90.7% and 97.9% and 95.7%
same,"viability, T/C",compound 1 µM,75.4% and 92.3% and 89.9%
same,"viability, T/C",compound 3.16 µM,31% and 80% and 72.3%
same,"viability, T/C",compound 10 µM,0.38% and 0.28% and 0.27%
same,IC50,curve of compound,1940 nM and 4850 nM and 4360 nM
